Results reported in patent US8143221B2, “Use of ADNF polypeptides for treating peripheral neurotoxicity” (Ramot at Tel-Aviv University, priority 2005, dated 2012).
Ends that are not written are not given here.

Tests used:
tubulin = settings: cited from earlier work
[1] = test system: neurons of the central nervous system; settings: in-vitro assays and in vivo disease models; cited from earlier work
[2] = test system: peripheral neurotoxicity induced by the taxane taxol; assay: Rota-rod test in taxol-treated rats; settings: Experiment 2: rats, taxol cumulative 9 mg/kg i.p.; five days after the first taxol injection
Procedure: In the Rota-rod test a rodent is placed on a rotating rod. […] The time spent on the rota-rod without falling was recorded. Impaired animals fall earlier from the rota-rod.
(§3) Forty Sprague-Dawley rats (eight weeks old) were divided into four groups that received the following treatments: a) 10% Cremophor EL in Saline; b) taxol for a cumulative dose of 5.6 mg/kg; c) taxol for a cumulative dose of 5.6 mg/kg+NAP 2.5 μg/kg/Day; or d) taxol for a cumulative dose of 5.6 mg/kg+NAP 25 μg/kg/Day. The taxol was reconstituted in a vehicle of 10% Cremophor EL in Saline.
(§4) Taxol treatments were administered four times intraperitoneally (i.p.) on nonconsecutive days in a volume of 250 μl each time. NAP was administered daily on 8 consecutive days from the first day of taxol injection (with a 2 day brake on the weekend).
Rats were tested in the rota-rod and plantar test. The rota-rod test is described above and assesses muscle strength. […] Statistical differences were tested by ANOVA and by t-test.
Fifteen Sprague-Dawley Rats (seven weeks old) were randomly divided into three groups that received the following treatments: a) 10% Cremophor EL in Saline; b) taxol for a cumulative dose of 9 mg/kg; or c) taxol for a cumulative dose of 9 mg/kg+2.5 μg/kg/Day NAP. The taxol was reconstituted in a vehicle of 10% Cremophor EL in Saline. […]

[3] = test system: peripheral neurotoxicity induced by the taxane taxol; assay: Plantar test (thermal hyperalgesia) in taxol-treated rats
Procedure: as §3, §4
Rats were tested in the rota-rod and plantar test. […] The plantar test evaluates thermal hyperalgesia. For the plantar test, each rat was placed in a clear plastic chamber with a plastic floor and allowed a short period to acclimatize to the new environment (approximately 2-5 min). The animals were then challenged with a radiant Infrared (IR) heat source directed at the plantar surface of the hind paw from below (7371 Plantar Test, Ugo Basile). The withdrawal latency of both the ipsilateral and contralateral hind paw was evaluated. The infrared intensity was set at IR55 and the maximum length of exposure to the IR source was eighteen seconds. Statistical differences were tested by ANOVA and by t-test. […]

[4] = test system: peripheral neurotoxicity induced by the vinca alkaloid vincristine; assay: Motor evaluation: ability to exit a circle 30 cm in diameter within 20 seconds, vincristine-treated rats; format: in vivo; settings: vincristine 0.175 mg/kg i.p. alone vs control
Procedure: (§1) Rats (200-300 g), divided into 4 groups of 10, were injected with vincristine sulfate dissolved in saline. Stock concentration was 2 mg/ml, pH 4.5-5.2. Aliquots of the drug were diluted daily in saline to concentrations of 0.175 mg/ml and were administered i.p. at a dose of 0.175 mg/kg. NAP was prepared at 0.1 mg/1.3 ml in saline (0.9% NaCl) and about 0.1 ml was injected subcutaneously to a ˜300 g rat to achieve a dose of 25 microgram/kg (exact calculations were made based on the daily body weights). For 2.5 microgram/kg, the injection solution was diluted by 10 and again 0.1 ml was injected per rat. Treatments took place daily (5 days a week) for ˜3 weeks (20 days) with the dosage calculated on daily body weight. NAP was administered at the same time as the vincristine, in the dosage and the amount where indicated the following schedule.
(§2) Four groups were evaluated: 1) Control, saline (n=10), 2) Vincristine (i.p.) 0.175 mg/kg (n=10), 3) Vincristine (i.p.) 0.175 mg/kg+NAP (s.c.) 2.5 microgram/kg (n=10), and 4) Vincristine (i.p.) 0.175 mg/kg+NAP (s.c.) 25 microgram/kg (n=10).
Motor examination was performed on days 6, 9, 13 and 24 after the initiation of the vincristine injections. Rats were examined after vincristine injection, with the use of a motor disability scale. […]
Animals were assessed based on their failure to walk out of a circle 30 cm in diameter within 20 seconds.

[5] = test system: peripheral neurotoxicity induced by the vinca alkaloid vincristine; assay: Rota-rod test in vincristine-treated rats; format: in vivo; settings: vincristine 0.175 mg/kg i.p. alone vs saline control, P<0.01
Procedure: as §1, §2
After a week cessation of treatment, a final boost of vincristine was given i.p. daily for three days and NAP at 25 microgram/kg was given intranasally to group number 4 only. […] For behavioral testing baseline toxin effects were evaluated 2-23 days following the first injection, using the testing procedures below: […]

[6] = test system: peripheral neurotoxicity induced by the vinca alkaloid vincristine; assay: Olfactory discrimination test in vincristine-treated rats; format: in vivo; settings: vincristine alone (group 2)
Procedure: Treatments took place daily (5 days a week) for ˜3 weeks (20 days) with the dosage calculated on daily body weight. NAP was administered subcutaneously at the same time as the vincristine was administered intraperitoneally, in the dosage and the amount indicated in the schedule above. After a week cessation of treatment a final boost of vincristine was given i.p. daily for three days and NAP at 25 microgram/kg was given intranasally to group number 4 only. The intranasal formulation followed the previous experiment (Alcalay et al., infra). An olfactory discrimination test was performed on each of the three days of NAP treatment during the final boost period. (Macknin et al., Brain Res. 1000, 174-78 (2004)) The odors tested were 1) Deionized water (ddw) and 2) Scented extracts, i.e., vanilla/almond.
Overall the experiment included 3 odors (water and two scented extracts) each encompassing 3 trials of 2 minutes. New dipped tip was introduced at the beginning of each trial for the different scents.
Thirty minutes before the testing the subjects were housed in separate cages and a cotton tip dipped in water was placed hanging into the cage. During these 30 minutes the animal was acclimatized to the tip and the cage. Thereafter, the cotton tip was dipped in the desired scent and placed hanging from the top of the cage. […]

[7] = test system: peripheral neurotoxicity under chemotherapy including L-OHP, FA/5-FU; assay: Randomized trial with or without NAP under chemotherapy with oxaliplatin (L-OHP), FA/5-FU; format: in vivo; settings: patients with ACRC, NAP 15 mg/45-70 kg i.v. before L-OHP, vs control group
Procedure: Aim of the study: Chemotherapy with L-OHP, FA, 5-FU has a high activity in advanced colorectal cancer (ACRC). The main dose-limiting toxicity of chemotherapy with L-OHP is a peripheral sensory neuropathy. In this study the patients (pts) will receive a chemotherapy with L-OHP, FA and 5-FU with or without NAP. The question is whether a reduction of side effects of neurotoxicity is seen after application of NAP.
We include 27 patients with ACRC. In arm A chemotherapy is applied with L-OHP 85 mg/m2 d1, FA 500 mg/m2 d1+d2 and 5-FU 4000 mg/m2 over 48 h continuous infusion as biweekly schedule. In arm B, 15 mg/45-70 kg NAP is given over 10 min i.v. before application of the same schedule of chemotherapy. Investigation of toxicity, neurological examination and a blood count is performed before every cycle. For a daily documentation of the side effects every patient receives a questionnaire.

SALLRSIPA
Interaction with tubulin (tubulin): interact with tubulin
Neuron survival in response to various insults [1]: keep neurons of the central nervous system alive

CC(=O)O[C@H]1C(=O)[C@@]2(C)[C@H]([C@H](OC(=O)c3ccccc3)[C@]3(O)C[C@H](OC(=O)[C@H](O)[C@@H](NC(=O)c4ccccc4)c4ccccc4)C(C)=C1C3(C)C)[C@]1(OC(C)=O)CO[C@@H]1C[C@@H]2O [taxol]
Rota-rod test: neuromuscular function, toxin alone [2]: a significant effect on neuromuscular function
Plantar test: thermal hyperalgesia, toxin alone ([3]; Experiment 1: rats, taxol cumulative 5.6 mg/kg i.p., after the last taxol injection on day three): exhibited thermal hyperalgesia
Plantar test: thermal hyperalgesia, toxin alone ([3]; Experiment 2: rats, taxol cumulative 9 mg/kg i.p., eight days after the last Taxol injection): exhibited a significant thermal hyperalgesia

CC[C@]1(O)C[C@H]2CN(CCc3c([nH]c4ccccc34)[C@@](C(=O)OC)(c3cc4c(cc3OC)N(C=O)[C@H]3[C@@](O)(C(=O)OC)[C@H](OC(C)=O)[C@]5(CC)C=CCN6CC[C@]43[C@@H]65)C2)C1 [vincristine]
Ability to exit a circle 30 cm in diameter within 20 seconds, toxin alone vs control ([4]; P<0.001): significantly reduced
Ability to exit a circle 30 cm in diameter within 20 seconds, toxin alone vs control ([4]; P<0.001, listed as Vincristine): significantly worse as compared to control animals
Rota-rod performance, toxin alone vs control [5]: significant difference between the vincristine treated animals and the control animals indicating impairment
Time spent with new odors: olfaction capacity, toxin alone [6]: did not show any initial interest in the new smell

CC[C@H](C)[C@H](NC(=O)[C@H](CO)NC(=O)[C@@H](NC(=O)[C@@H]1CCCN1C(=O)[C@H](C)NC(=O)[C@@H](N)CC(N)=O)C(C)C)C(=O)N1CCC[C@H]1C(=O)N[C@@H](CCC(N)=O)C(=O)O [NAP, Asn-Ala-Pro-Val-Ser-Ile-Pro-Gln]
Frequency of grade II/III leucopenia [7]: occurs at a lower frequency than in the control group

B1: ADNP: full length ADNF III, activity-dependent neuroprotective protein (protein, UniProt Q9H2P0 1-1102, looked up)
chain: MFQLPVNNLGSLRKARKTVKKILSDIGLEYCKEHIEDFKQFEPNDFYLKNTTWEDVGLWDPSLTKNQDYRTKPFCCSACPFSSKFFSAYKSHFRNVHSEDFENRILLNCPYCTFNADKKTLETHIKIFHAPNASAPSSSLSTFKDKNKNDGLKPKQADSVEQAVYYCKKCTYRDPLYEIVRKHIYREHFQHVAAPYIAKAGEKSLNGAVPLGSNAREESSIHCKRCLFMPKSYEALVQHVIEDHERIGYQVTAMIGHTNVVVPRSKPLMLIAPKPQDKKSMGLPPRIGSLASGNVRSLPSQQMVNRLSIPKPNLNSTGVNMMSSVHLQQNNYGVKSVGQGYSVGQSMRLGLGGNAPVSIPQQSQSVKQLLPSGNGRSYGLGSEQRSQAPARYSLQSANASSLSSGQLKSPSLSQSQASRVLGQSSSKPAAAATGPPPGNTSSTQKWKICTICNELFPENVYSVHFEKEHKAEKVPAVANYIMKIHNFTSKCLYCNRYLPTDTLLNHMLIHGLSCPYCRSTFNDVEKMAAHMRMVHIDEEMGPKTDSTLSFDLTLQQGSHTNIHLLVTTYNLRDAPAESVAYHAQNNPPVPPKPQPKVQEKADIPVKSSPQAAVPYKKDVGKTLCPLCFSILKGPISDALAHHLRERHQVIQTVHPVEKKLTYKCIHCLGVYTSNMTASTITLHLVHCRGVGKTQNGQDKTNAPSRLNQSPSLAPVKRTYEQMEFPLLKKRKLDDDSDSPSFFEEKPEEPVVLALDPKGHEDDSYEARKSFLTKYFNKQPYPTRREIEKLAASLWLWKSDIASHFSNKRKKCVRDCEKYKPGVLLGFNMKELNKVKHEMDFDAEWLFENHDEKDSRVNASKTADKKLNLGKEDDSSSDSFENLEEESNESGSPFDPVFEVEPKISNDNPEEHVLKVIPEDASESEEKLDQKEDGSKYETIHLTEEPTKLMHNASDSEVDQDDVVEWKDGASPSESGPGSQQVSDFEDNTCEMKPGTWSDESSQSEDARSSKPAAKKKATMQGDREQLKWKNSSYGKVEGFWSKDQSQWKNASENDERLSNPQIEWQNSTIDSEDGEQFDNMTDGVAEPMHGSLAGVKLSSQQA
modifications: full-length
Interaction with tubulin (tubulin): interact with tubulin
